The values that follow come from US20110201818A1, “POLO-LIKE KINASE INHIBITORS” (TAKEDA PHARMACEUTICAL COMPANY LIMITED, priority 2007, published 2011).

For this test, the target named is T1, human PLK1 (Homo sapiens, UniProt P53350).
T1 construct: FLAG (DYKDDDDK) (N); made in house; host or cells: Sf21 insect cells, recombinant baculovirus (pFASTBAC1, Bac-to-Bac)
T1 sequence (P53350 with tags, fused parts or gaps): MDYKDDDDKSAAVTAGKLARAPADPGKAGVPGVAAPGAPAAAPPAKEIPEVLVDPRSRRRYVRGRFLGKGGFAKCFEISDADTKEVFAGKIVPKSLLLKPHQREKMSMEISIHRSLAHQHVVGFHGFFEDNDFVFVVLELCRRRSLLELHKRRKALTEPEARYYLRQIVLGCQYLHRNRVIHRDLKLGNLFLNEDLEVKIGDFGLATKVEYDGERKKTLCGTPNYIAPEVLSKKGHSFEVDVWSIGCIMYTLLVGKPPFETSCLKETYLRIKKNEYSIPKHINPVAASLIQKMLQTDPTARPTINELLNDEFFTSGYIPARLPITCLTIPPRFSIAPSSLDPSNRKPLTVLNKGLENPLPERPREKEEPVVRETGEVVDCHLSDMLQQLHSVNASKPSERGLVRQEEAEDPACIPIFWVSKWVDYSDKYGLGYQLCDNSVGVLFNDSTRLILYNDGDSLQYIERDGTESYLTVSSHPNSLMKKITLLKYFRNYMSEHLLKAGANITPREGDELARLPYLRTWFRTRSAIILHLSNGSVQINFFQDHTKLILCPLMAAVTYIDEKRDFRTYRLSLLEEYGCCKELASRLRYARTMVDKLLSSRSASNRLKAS
The experiment in a line: PLK1 in vitro enzymatic activity assay (phosphorylation of alpha casein by recombinant PLK1). The format is biochemical. As to conditions: recombinant FLAG-tagged PLK1, alpha casein substrate, 500 nmol/L ATP, 40 min at room temperature; read-out: pIC50 (PLK1) (converted). Here is the method: PCR was performed using the vector as a template. […] After XbaI and XhoI digestion of the PCR product, the fragment was subcloned into pFASTBAC1 (Invitrogen, USA). Recombinant baculoviruses were prepared according to the procedure of the Bac-to-Bac baculovirus expression system (Invitrogen, USA). Sf21 cells were purchased from Invitrogen and grown in Sf-900 II SFM medium containing 10% fetal bovine serum, 50 μg/mL gentamicin and 0.1% pluronic F-68 (Invitrogen, USA) at 28° C. For preparation of PLK1 enzyme, Sf21 cells were infected with recombinant baculoviruses and cultured at 28° C. for 72 h.
The inhibition of PLK1 by the compounds was determined with the following assay that measures the phosphorylation of alpha casein by recombinant PLK1. Kinase reactions were performed at room temperature for 40 min in the kinase reaction buffer (25 mmol/L HEPES, pH 7.5, 10 mmol/L magnesium acetate, 1 mmol/L dithiothreitol) containing 50 ng PLK1 enzyme, 0.1 μCi [γ-^32P]ATP, 500 nmol/L ATP and 3 μg alpha casein (MP Biomedicals Inc., USA) in a final volume of 50 μL. The incubation was terminated by the addition of 10% trichloroacetic acid (Wako, Japan). Phosphorylated proteins were filtrated in GF/C filter plates (Packard, USA) with a Cell harvester (Packard, USA) and washed out free [γ-^32P]-ATP with 250 mmol/L phosphoric acid. Then, the plates were air dried for 60 min at 45° C., followed by the addition of 20 μL of MicroScint-O (Packard, USA). The radioactivity was counted by a Top-count scintillation counter (Packard, USA).
With `CN1CCC(NC(=O)c2ccc(Nc3ncc4c(n3)N(C3CCCC3)CC(F)(F)C(=O)N4C)c(C(F)(F)F)c2)CC1` [Compound 30, 4-(9-cyclopentyl-7,7-difluoro-5-methyl-6-oxo-6,7,8,9-tetrahydro-5H-pyrimido[4,5-b][1,4]diazepin-2-ylamino)-N-(1-methylpiperidin-4-yl)-3-(trifluoromethyl)benzamide], the IC50 was above 2 nM.

As for `COc1cc(C(=O)O)c(F)cc1Nc1ncc2c(n1)N(C1CCCC1)CC(F)(F)C(=O)N2C` [Compound 31, 4-(9-Cyclopentyl-7,7-difluoro-5-methyl-6-oxo-6,7,8,9-tetrahydro-5H-pyrimido[4,5-b][1,4]diazepin-2-ylamino)-2-fluoro-5-methoxybenzoic acid], the IC50 was at most 2 nM.

With `COc1cc(C(=O)NC2CCN(C)CC2)ccc1Nc1ncc2c(n1)N(C1CCCCC1)CC(F)(F)C(=O)N2C` [Compound 33, 4-(9-cyclohexyl-7,7-difluoro-5-methyl-6-oxo-6,7,8,9-tetrahydro-5H-pyrimido[4,5-b][1,4]diazepin-2-ylamino)-3-methoxy-N-(1-methylpiperidin-4-yl)benzamide], the IC50 is at most 2 nM.

For the compound `COc1cc(C(=O)NN2CCN(C)CC2)ccc1Nc1ncc2c(n1)N(C1CCCCC1)CC(F)(F)C(=O)N2C` [Compound 34, 4-(9-cyclohexyl-7,7-difluoro-5-methyl-6-oxo-6,7,8,9-tetrahydro-5H-pyrimido[4,5-b][1,4]diazepin-2-ylamino)-3-methoxy-N-(4-methylpiperazin-1-yl)benzamide], the IC50 was at most 2 nM.

On to `COc1cc(C(=O)NC2CN(C)C2)ccc1Nc1ncc2c(n1)N(C1CCCCC1)CC(F)(F)C(=O)N2C` [Compound 35, 4-(9-Cyclohexyl-7,7-difluoro-5-methyl-6-oxo-6,7,8,9-tetrahydro-5H-pyrimido[4,5-b][1,4]diazepin-2-ylamino)-3-methoxy-N-(1-methylazetidin-3-yl)benzamide], for which the IC50 was at most 2 nM.

Regarding `CCN1CCC(NC(=O)c2ccc(Nc3ncc4c(n3)N(C3CCCCC3)CC(F)(F)C(=O)N4C)c(OC)c2)CC1` [Compound 36, 4-(9-cyclohexyl-7,7-difluoro-5-methyl-6-oxo-6,7,8,9-tetrahydro-5H-pyrimido[4,5-b][1,4]diazepin-2-ylamino)-N-(1-ethylpiperidin-4-yl)-3-methoxybenzamide], the IC50 was at most 2 nM.

Regarding `COc1cc(C(=O)N[C@H]2CCCNC2)ccc1Nc1ncc2c(n1)N(C1CCCCC1)CC(F)(F)C(=O)N2C` [Compound 37, (S)-4-(9-cyclohexyl-7,7-difluoro-5-methyl-6-oxo-6,7,8,9-tetrahydro-5H-pyrimido[4,5-b][1,4]diazepin-2-ylamino)-3-methoxy-N-(piperidin-3-yl)benzamide], the IC50 was above 2 nM.

Take `COc1cc(C(=O)N[C@@H]2CCCNC2)ccc1Nc1ncc2c(n1)N(C1CCCCC1)CC(F)(F)C(=O)N2C` [Compound 38, (R)-4-(9-cyclohexyl-7,7-difluoro-5-methyl-6-oxo-6,7,8,9-tetrahydro-5H-pyrimido[4,5-b][1,4]diazepin-2-ylamino)-3-methoxy-N-(piperidin-3-yl)benzamide]: the IC50 is at most 2 nM.

In the case of `COc1cc(C(=O)N[C@H]2CC[C@H](O)CC2)ccc1Nc1ncc2c(n1)N(C1CCCCC1)CC(F)(F)C(=O)N2C` [Compound 40, 4-(9-cyclohexyl-7,7-difluoro-5-methyl-6-oxo-6,7,8,9-tetrahydro-5H-pyrimido[4,5-b][1,4]diazepin-2-ylamino)-N-((1r,4r)-4-hydroxycyclohexyl)-3-methoxybenzamide], the IC50 is at most 2 nM.

Turning to `COc1cc(C(=O)N[C@H]2CC[C@H](OP(=O)(O)O)CC2)ccc1Nc1ncc2c(n1)N(C1CCCCC1)CC(F)(F)C(=O)N2C` [Compound 41, (1R,4R)-4-(4-(9-cyclohexyl-7,7-difluoro-5-methyl-6-oxo-6,7,8,9-tetrahydro-5H-pyrimido[4,5-b][1,4]diazepin-2-ylamino)-3-methoxybenzamido)cyclohexyl dihydrogen phosphate], the IC50 is at most 2 nM.

Take `COc1cc(C(=O)NC2CCCNCC2)ccc1Nc1ncc2c(n1)N(C1CCCCC1)CC(F)(F)C(=O)N2C` (stereo not drawn) [Compound 42, N-(azepan-4-yl)-4-(9-cyclohexyl-7,7-difluoro-5-methyl-6-oxo-6,7,8,9-tetrahydro-5H-pyrimido[4,5-b][1,4]diazepin-2-ylamino)-3-methoxybenzamide]: the IC50 is at most 2 nM.

As for `COc1cc(C(=O)NC2CNC2)ccc1Nc1ncc2c(n1)N(C1CCCCC1)CC(F)(F)C(=O)N2C` [Compound 43, N-(azetidin-3-yl)-4-(9-cyclohexyl-7,7-difluoro-5-methyl-6-oxo-6,7,8,9-tetrahydro-5H-pyrimido[4,5-b][1,4]diazepin-2-ylamino)-3-methoxybenzamide], the IC50 is at most 2 nM.

On to `COc1cc(C(=O)NC2CCN(CCO)CC2)ccc1Nc1ncc2c(n1)N(C1CCCCC1)CC(F)(F)C(=O)N2C` [Compound 44, 4-(9-cyclohexyl-7,7-difluoro-5-methyl-6-oxo-6,7,8,9-tetrahydro-5H-pyrimido[4,5-b][1,4]diazepin-2-ylamino)-N-(1-(2-hydroxyethyl)piperidin-4-yl)-3-methoxybenzamide], for which the IC50 was at most 2 nM.

On to `COc1cc(C(=O)N[C@H]2CN3CCC2CC3)ccc1Nc1ncc2c(n1)N(C1CCCCC1)CC(F)(F)C(=O)N2C` [Compound 45, (R)-4-(9-cyclohexyl-7,7-difluoro-5-methyl-6-oxo-6,7,8,9-tetrahydro-5H-pyrimido[4,5-b][1,4]diazepin-2-ylamino)-3-methoxy-N-(quinuclidin-3-yl)benzamide], for which the IC50 is at most 2 nM.

On to `COc1cc(C(=O)N[C@@H]2CN3CCC2CC3)ccc1Nc1ncc2c(n1)N(C1CCCCC1)CC(F)(F)C(=O)N2C` [Compound 46, (S)-4-(9-cyclohexyl-7,7-difluoro-5-methyl-6-oxo-6,7,8,9-tetrahydro-5H-pyrimido[4,5-b][1,4]diazepin-2-ylamino)-3-methoxy-N-(quinuclidin-3-yl)benzamide], for which the IC50 is above 2 nM.

With `COc1cc(C(=O)NC2CC3CCC(C2)N3C)ccc1Nc1ncc2c(n1)N(C1CCCCC1)CC(F)(F)C(=O)N2C` (stereo not drawn) [Compound 51, 4-(9-cyclohexyl-7,7-difluoro-5-methyl-6-oxo-6,7,8,9-tetrahydro-5H-pyrimido[4,5-b][1,4]diazepin-2-ylamino)-3-methoxy-N-(8-methyl-8-azabicyclo[3.2.1]octan-3-yl)benzamide], the IC50 is at most 2 nM.

For `COc1cc(C(=O)NCCCN(C)C)ccc1Nc1ncc2c(n1)N(C1CCCCC1)CC(F)(F)C(=O)N2C` [Compound 54, 4-(9-cyclohexyl-7,7-difluoro-5-methyl-6-oxo-6,7,8,9-tetrahydro-5H-pyrimido[4,5-b][1,4]diazepin-2-ylamino)-N-(3-(dimethylamino)propyl)-3-methoxybenzamide], the IC50 was above 2 nM.

For the compound `COc1cc(C(=O)NCCN2CCCC2)ccc1Nc1ncc2c(n1)N(C1CCCCC1)CC(F)(F)C(=O)N2C` [Compound 56, 4-(9-cyclohexyl-7,7-difluoro-5-methyl-6-oxo-6,7,8,9-tetrahydro-5H-pyrimido[4,5-b][1,4]diazepin-2-ylamino)-3-methoxy-N-(2-(pyrrolidin-1-yl)ethyl)benzamide], the IC50 was above 2 nM.
